Among the data in the supplement of paper PMC10307832 are relative viability values, retold here.

Common to all, as to test: relative viability (nuclei count vs DMSO), 5 days (fraction); higher = more cells survive
Compound in experiment [1]: O=C(C[C@H]1NCCC[C@@H]1O)Cn1cnc2cc(Br)c(Cl)cc2c1=O (racemic) [Halofuginone] + Cc1nc(NC(=O)N2CCC[C@H]2C(N)=O)sc1-c1ccnc(C(C)(C)C(F)(F)F)c1 [Alpelisib] (partner 2 µM)
The method, boiled down: (§1)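 Dosing by pin tool came one day after lung cancer cell lines were seeded in 1536-well plates, using either one drug or a fixed anchor-drug dose plus five library-drug doses (not always all listed) in √10 steps. After 5 days, nuclei were counted on 4× images. Relative viability is treated-well nuclei count divided by vehicle-well nuclei count, and values are medians of duplicate plates.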

Compound in experiment [2]: O=C(C[C@H]1NCCC[C@@H]1O)Cn1cnc2cc(Br)c(Cl)cc2c1=O (racemic) [Halofuginone] + Cc1cc(Nc2cc(N3CCN(C)CC3)nc(Sc3ccc(NC(=O)C4CC4)cc3)n2)n[nH]1 [Tozasertib] (partner 0.1 µM)
The method, boiled down:
as §1

Compound in experiment [3]: O=C(C[C@H]1NCCC[C@@H]1O)Cn1cnc2cc(Br)c(Cl)cc2c1=O (racemic) [Halofuginone] + CC(=O)c1c(C)c2cnc(Nc3ccc(N4CCNCC4)cn3)nc2n(C2CCCC2)c1=O [Palbociclib] (partner 0.5 µM)
The method, boiled down: as §1

Compound in experiment [4]: COc1cc2c(Oc3ccc4[nH]c(C)cc4c3F)ncnc2cc1OCCCN1CCCC1 [Cediranib] + O=C(CCCCCCC(=O)Nc1ccccc1)NO [Vorinostat] (partner 1 µM)
The method, boiled down:
as §1

Regarding EBC-1, the relative viability turned out to be 0.939 in experiment [1] (first compound 0.001 µM); 0.779 in experiment [1] (first compound 0.003162 µM); 0.666 in experiment [1] (first compound 0.01 µM); 0.441 in experiment [1] (first compound 0.03162 µM); 0.181 in experiment [1] (first compound 0.1 µM).

Take EKVX: the relative viability in experiment [2] (first compound 0.001 µM) came out at 0.432; in experiment [2] (first compound 0.003162 µM) it was 0.377; in experiment [2] (first compound 0.01 µM), 0.352; in experiment [2] (first compound 0.03162 µM) it was 0.354; in experiment [2] (first compound 0.1 µM) it was 0.349; in experiment [3] (first compound 0.001 µM), 0.377. Besides, the relative viability in experiment [3] (first compound 0.003162 µM) was 0.352; in experiment [3] (first compound 0.01 µM), 0.415; in experiment [3] (first compound 0.03162 µM) it was 0.444; in experiment [3] (first compound 0.1 µM), 0.306; in experiment [1] (first compound 0.001 µM) it was 1.01; in experiment [1] (first compound 0.003162 µM), 0.922. The relative viability in experiment [1] (first compound 0.01 µM) was determined as 0.862; in experiment [1] (first compound 0.03162 µM) it was 0.859; in experiment [1] (first compound 0.1 µM) it was 0.638; in experiment [4] (first compound 0.04 µM), 0.956; in experiment [4] (first compound 0.1265 µM), 0.534; in experiment [4] (first compound 0.4 µM) it was 0.63. In addition, the relative viability in experiment [4] (first compound 1.265 µM) worked out at 0.916; in experiment [4] (first compound 4 µM), 0.697.

Take EMC-BAC-2: the relative viability in experiment [2] (first compound 0.001 µM) amounted to 0.329; in experiment [2] (first compound 0.003162 µM), 0.248; in experiment [2] (first compound 0.01 µM) it was 0.276; in experiment [2] (first compound 0.03162 µM) it was 0.242; in experiment [2] (first compound 0.1 µM) it was 0.162; in experiment [3] (first compound 0.001 µM), 0.545. The relative viability in experiment [3] (first compound 0.003162 µM) worked out at 0.531; in experiment [3] (first compound 0.01 µM), 0.506; in experiment [3] (first compound 0.03162 µM), 0.536; in experiment [3] (first compound 0.1 µM) it was 0.37; in experiment [1] (first compound 0.001 µM) it was 0.765; in experiment [1] (first compound 0.003162 µM), 0.761. Besides, the relative viability in experiment [1] (first compound 0.01 µM) turned out to be 0.766; in experiment [1] (first compound 0.03162 µM), 0.723; in experiment [1] (first compound 0.1 µM), 0.517; in experiment [4] (first compound 0.04 µM), 0.403; in experiment [4] (first compound 0.4 µM), 0.407; in experiment [4] (first compound 1.265 µM), 0.485. For the same cell line, the relative viability in experiment [4] (first compound 4 µM) worked out at 0.499.

With EPLC-272H, the relative viability in experiment [2] (first compound 0.001 µM) was found to be 0.241; in experiment [2] (first compound 0.003162 µM), 0.333; in experiment [2] (first compound 0.01 µM), 0.318; in experiment [2] (first compound 0.03162 µM), 0.279; in experiment [2] (first compound 0.1 µM), 0.247; in experiment [3] (first compound 0.001 µM), 0.306. The relative viability is 0.33 in experiment [3] (first compound 0.003162 µM); 0.339 in experiment [3] (first compound 0.01 µM); 0.361 in experiment [3] (first compound 0.03162 µM); 0.314 in experiment [3] (first compound 0.1 µM); 1.04 in experiment [1] (first compound 0.001 µM); 0.893 in experiment [1] (first compound 0.003162 µM). The relative viability stood at 0.866 in experiment [1] (first compound 0.01 µM); 1.02 in experiment [1] (first compound 0.03162 µM); 0.798 in experiment [1] (first compound 0.1 µM); 0.38 in experiment [4] (first compound 0.04 µM); 0.448 in experiment [4] (first compound 0.1265 µM); 0.401 in experiment [4] (first compound 0.4 µM). Further, the relative viability in experiment [4] (first compound 1.265 µM) is 0.527; in experiment [4] (first compound 4 µM), 0.383.

As for H3255, the relative viability in experiment [2] (first compound 0.001 µM) came to 0.709; in experiment [2] (first compound 0.003162 µM), 0.524; in experiment [2] (first compound 0.01 µM), 0.723; in experiment [2] (first compound 0.03162 µM), 0.67; in experiment [2] (first compound 0.1 µM) it was 0.618; in experiment [3] (first compound 0.001 µM), 0.322. Besides, the relative viability turned out to be 0.323 in experiment [3] (first compound 0.003162 µM); 0.346 in experiment [3] (first compound 0.01 µM); 0.309 in experiment [3] (first compound 0.03162 µM); 0.351 in experiment [3] (first compound 0.1 µM); 0.664 in experiment [1] (first compound 0.001 µM); 0.619 in experiment [1] (first compound 0.003162 µM). Besides, the relative viability in experiment [1] (first compound 0.01 µM) was found to be 0.558; in experiment [1] (first compound 0.03162 µM) it was 0.683; in experiment [1] (first compound 0.1 µM), 0.606; in experiment [4] (first compound 0.04 µM), 0.921; in experiment [4] (first compound 0.4 µM) it was 0.706; in experiment [4] (first compound 4 µM), 0.735.
